Experimental data published in paper PMC9436958, “The synthesis of novel thioderivative chalcones and their influence on NF-κB, STAT3 and NRF2 signaling pathways in colorectal cancer cells” (Scientific Reports, 2022).

Columns and labels:
[1] = tested on: AKT; parameters: method as in BinidngDB; conditions: inhibitor of PDB ID 4GV1; ref BinidngDB; cited from earlier work
[2] = MTT viability assay, normal HaCaT cells; assay type: cell-based; conditions: HaCaT cells (spontaneously immortalized keratinocytes), normal human HaCaT cells, read-out: IC50, cytotoxicity
Procedure: (§1) The DLD-1 and HCT116 colorectal carcinoma cell lines were purchased from ECACC. The HaCaT cell line of spontaneously immortalized keratinocytes was purchased from Cell Lines Service (Germany). The cells were cultured in Dulbecco’s Modified Eagle’s Medium (DMEM, Sigma-Aldrich, USA) with the addition of 10% FBS (EURx, Poland) and 1% antibiotic solution (penicillin and streptomycin) (Sigma-Aldrich, USA) at 37 °C in an atmosphere with 95% humidity and 5% CO2.
(§2) The effect of the tested compounds on the viability of DLD-1, HCT116 and HaCaT cells was assessed by the MTT assay according to the standard protocol.

[3] = tested on: DLD-1 cells; assay: MTT viability assay, DLD-1 cells; assay type: cell-based; conditions: Homo sapiens, range 0.5–100 µM, read-out: IC50, cytotoxicity
Procedure: as §1, §2

[4] = tested on: Nrf2; assay: Transcription factor ELISA, Nrf2 binding to DNA; assay type: cell-based
Procedure: (§3) To estimate NF-ΚB (p50 and p65 subunits) STAT3 and Nrf2 activation, enzymatic immunoassays with the Transcription Factor ELISA Kit (TransAM™NF-κB, TransAM™STAT3/TransAM™Nrf2, Active Motif, Carlsbad CA, USA) were used following the manufacturer’s protocol. Briefly, proper consensus-site double-strand oligonucleotides (NF-κB—5′-GGGACTTTCC-3′; STAT3-5’—TTCCCGGAA-3’; Nrf2-5ʹ—[…]-3ʹ) were immobilized on an ELISA plate and incubated for one hour with the nuclear extracts. The activated subunits bound to DNA were recognized with a specific primary antibody and detected with an HRP-conjugated secondary antibody. The number of subunits was determined by spectrophotometry at λ = 450 nm. The number of p50, and p65 subunits, STAT3, as well as the amount of Nrf2 contained in the DNA-binding complex, corresponded to the activated NF-κB, STAT3, or Nrf2 transcription factors.

[5] = tested on: p-Nrf2; assay: Western blot, p-Nrf2 protein in nuclear fraction; assay type: cell-based; conditions: HCT116 line; 5 μM
Procedure: (§4) Cytosolic and nuclear extracts were prepared using a Nuclear/Cytosol Fractionation Kit (BioVision Research, USA). Cytosolic extracts (for NF-κBp65, NF-κBp50, COX-2, iNOS, STAT3, c-Myc, Bcl-xl, Nrf2, SOD, GSTP, EGFR, Akt, p-Akt, Keap1, IKKα/β and β-actin) or nuclear extracts (for NF-κBp65, NF-κBp50, STAT3, p-STAT3, Nrf2, p-Nrf2 and lamin) were separated on 7.5%, 10% or 12% SDS–PAGE slab gels. Then, the proteins were transferred to a nitrocellulose Immobilon-P membrane. After blocking for 2 h with 10% skimmed milk, proteins were incubated with primary antibodies against NF-κBp65, NF-κBp50, COX-2, iNOS, STAT3, p-STAT3, c-Myc, Bcl-xl, Nrf2, p-Nrf2, SOD, GSTP, EGFR, Akt, p-Akt, Keap1, IKKα/β, β-actin, and lamin. Alkaline phosphatase (AP)-labeled anti-rabbit IgG, anti-goat IgG, and anti-mouse IgG secondary antibodies (Bio-Rad Laboratories, USA), as well as horseradish peroxidase (HRP)-conjugated anti-mouse IgG (Boster Bio, USA) secondary antibodies were used in the staining reaction. Bands were visualized by the AP Conjugate Substrate Kit NBT/BCIP or the chemiluminescent HRP substrate of the Clarity ECL Kit (Bio–Rad Laboratories, USA). The amount of immunoreactive product in each lane was determined using a ChemiDoc Imaging System (Bio–Rad Laboratories, USA). Values were calculated as relative absorbance units (RQ) per mg of protein and expressed as a percentage of the control.

[6] = tested on: HCT116 cells; assay: MTT viability assay, HCT116 cells; assay type: cell-based; conditions: Homo sapiens, HCT-116, range 0.5–100 µM, read-out: IC50, cytotoxicity
Procedure: as §1, §2

[7] = tested on: NF-κB p65; assay: qRT-PCR, NF-κB p65 mRNA; assay type: cell-based; conditions: for inhibitory effect on p65 subunit transcription: DLD-1 cells, 5 μM
Procedure: (§5) Total RNA from cells was isolated with the GeneMatrix Universal DNA/RNA/Protein Purification Kit (EurX, Poland). For the qRT-PCR analyses, the Maxima SYBR Green I/ROX qPCR Master Mix (2×) (Thermo Fisher Scientific, USA) and the thermal cycler LightCycler (Roche, Germany) were used. The protocol started with 5 min of enzyme activation at 95 °C, followed by 40–50 cycles at 95 °C for 15 s, 56 °C for 20 s, 72 °C for 40 s, and final elongation at 72 °C for 5 min. Melting curve analysis was used for amplicon verification. The expression levels of TATA-box-binding protein (TBP) and porphobilinogen deaminase (PBGD) were used to normalize the data. The Pfaffl comparative method was used to calculate fold change. Primers were designed using Beacon Designer software (the sequences of primers used to analyze genes are listed in Table 2 of the supplementary materials).

[8] = tested on: SOD; assay: SOD expression (qRT-PCR mRNA, Western blot protein); assay type: cell-based; conditions: HCT116 cells; 5 μM
Procedure: as §4
as §5, with “Primers were designed using Beacon Designer software (the sequences of primers used to analyze genes are listed in Table 2 of the supplementary materials).” left out

[9] = tested on: NF-κB p50; assay: Transcription factor ELISA, NF-κB p50 binding to DNA; assay type: cell-based; conditions: DLD-1 cells; 1, 4 at 1 μM; 2, 3, 5-8 at 5 μM; in relation to the control group
Procedure: as §3

[10] = tested on: STAT3; assay: qRT-PCR, STAT3 mRNA; assay type: cell-based; conditions: DLD-1 cells; 2, 5 at 5 μM, 4 at 1 μM
Procedure: as §5

[11] = tested on: Bcl-xl; assay: Bcl-xl expression (qRT-PCR mRNA, Western blot protein); assay type: cell-based; conditions: DLD-1 cells; 2 at 5 μM
Procedure: as §4, §5

[12] = tested on: p-Akt; assay: Western blot, p-Akt (Ser 473) protein in cytosolic fraction; assay type: cell-based; conditions: 2, 5 at 5 μM, 4 at 1 μM
Procedure: as §4

[13] = tested on: STAT3; assay: Transcription factor ELISA, STAT3 binding to DNA; assay type: cell-based; conditions: 2, 5 at 5 μM, 4 at 1 μM
Procedure: as §3

[14] = tested on: COX-2; assay: COX-2 expression (qRT-PCR mRNA, Western blot protein); assay type: cell-based; conditions: 4 at 1 μM; for COX-2 transcription: DLD-1 cells, 3, 6 at 5 μM
Procedure: as §4, §5

[15] = tested on: STAT3; assay: Western blot, STAT3 protein level; assay type: cell-based; conditions: DLD-1 cells; 2 at 5 μM, 4 at 1 μM
Procedure: as §4

[16] = tested on: EGFR; assay: Western blot, EGFR protein in cytosolic fraction; assay type: cell-based; conditions: DLD-1 cells; 2, 5 at 5 μM, 4 at 1 μM
Procedure: as §4

[17] = tested on: NF-κB p65; assay: Transcription factor ELISA, NF-κB p65 binding to DNA; assay type: cell-based; conditions: DLD-1 cells (context); 1, 4 at 1 μM; 2, 8 at 5 μM; vs control
Procedure: as §3

[18] = tested on: c-Myc; assay: c-Myc expression (qRT-PCR mRNA, Western blot protein); assay type: cell-based; conditions: DLD-1 cells; 2 at 5 μM
Procedure: as §4, with “control. […]” for “control.”

[19] = tested on: EGFR; parameters: method as in BinidngDB; conditions: inhibitor of PDB ID 5UGB; ref BinidngDB; cited from earlier work
[20] = DLD-1 cells, 1 at 1 μM, 3, 5, 7, 8 at 5 μM
[21] = HCT116 cells, 4 at 1 μM, 2, 5, 6, 7 at 5 μM

## NC1(C(=O)N[C@@H](CCO)c2ccc(Cl)cc2)CCN(c2ncnc3[nH]ccc23)CC1 [AZD5363]
[1]
  IC50: 0.0042 µM

## COc1cc(C(=O)/C=C/c2ccc(SC)cc2)cc(Br)c1SC [chalcone 7]
[2]
  IC50: 27 µM
[3]
  IC50: 43 µM
[4]; [20]
  Nrf2 binding to a specific nucleotide sequence (ELISA): statistically significant increase
[4]; [21]
  Nrf2 binding to a specific nucleotide sequence (ELISA): statistically significant increase
[5]
  increase in the nuclear level of p-Nrf2: 80%
[6]
  IC50: 19 µM
[7]
  inhibitory effect on p65 subunit transcription: most potent inhibitory effect
[8]
  levels of SOD mRNA and protein: increased levels of SOD mRNA and protein
[9]
  decrease of p50 binding to the 5'-GGGACTTTCC-3' target sequence: 41%

## COc1cc(/C=C/C(=O)c2cc(Br)c(OC)c(OC)c2)ccc1SC [chalcone 2]
[2]
  IC50: 13 µM
[3]
  IC50: 11 µM
[4]; [21]
  Nrf2 binding to a specific nucleotide sequence (ELISA): statistically significant increase
[10]
  STAT3 gene expression (mRNA): decreased
[11]
  Bcl-xl protein level: reduced level of the Bcl-xl protein
  decrease in the level of Bcl-xl mRNA: 25%
[12]; DLD-1 cells
  phosphorylation of p-Akt (Ser 473): significantly reduced phosphorylation of p-Akt
[12]; HCT116 cells
  phosphorylation of p-Akt (Ser 473): significantly reduced phosphorylation of p-Akt
[13]; HCT116 cells
  binding of STAT3 to DNA: decreased the binding of STAT3 to DNA
[13]; nuclear fraction of DLD-1 cells
  decrease in the binding of STAT3 to DNA: 25%
[14]; HCT116 cells, 2 at 5 μM
  COX-2 expression, protein level: reduction of COX-2 expression
  COX-2 expression, transcript level: reduction of COX-2 expression
[6]
  IC50: 18 µM
[15]
  decrease in the nuclear level of STAT3 protein: 22%
[16]
  level of EGFR: significantly decreased the level of EGFR
[7]
  inhibitory effect on p65 subunit transcription: most potent inhibitory effect
[17]
  reduction of the binding of the p65 subunit to DNA: 24%
[18]
  c-Myc expression: decreased c-Myc expression

## COc1ccc(/C=C/C(=O)c2cc(Br)c(OC)c(OC)c2)cc1SC [chalcone 3]
[2]
  IC50: 9 µM
[3]
  IC50: 8 µM
[4]; [20]
  Nrf2 binding to a specific nucleotide sequence (ELISA): statistically significant increase
[14]
  COX-2 transcription: statistically significant reduction
[6]
  IC50: 17 µM

## COc1ccc(/C=C/C(=O)c2cc(Br)c(SC)c(OC)c2)cc1SC [chalcone 6]
[2]
  IC50: 13 µM
[3]
  IC50: 12 µM
[4]; [21]
  Nrf2 binding to a specific nucleotide sequence (ELISA): statistically significant increase
[5]
  increase in the nuclear level of p-Nrf2: 52%
[14]
  COX-2 transcription: statistically significant reduction
[6]
  IC50: 21 µM
[8]
  levels of SOD mRNA and protein: increased levels of SOD mRNA and protein

## COc1ccc(/C=C/C(=O)c2cc(OC)c(SC)c(OC)c2)cc1SC [chalcone 8]
[2]
  IC50: 17 µM
[3]
  IC50: 9 µM
[4]; [20]
  Nrf2 binding to a specific nucleotide sequence (ELISA): statistically significant increase
[6]
  IC50: 19 µM
[7]; HCT116 cells, 8 at 5 μM, compared to the control group
  decrease of p65 transcription: 30%
[17]
  reduction of the binding of the p65 subunit to DNA: 38%

## COc1ccc(/C=C/C(=O)c2cc(OC)c(OC)c(OC)c2)cc1SC [chalcone 1]
[2]
  IC50: 4 µM
[3]
  IC50: 3 µM
[4]; [20]
  Nrf2 binding to a specific nucleotide sequence (ELISA): statistically significant increase
[6]
  IC50: 19 µM
[17]
  reduction of the binding of the p65 subunit to DNA: 21%
